Reference: US6898533B1, “Methods for predicting the biological, chemical, and physical properties of molecules from their spectral properties” (The United States of America as represented by the …, priority 2000, dated 2005)
Like-named read-outs stand apart in the source and are kept apart here.

Columns and labels:
estrogen receptor [1] = assay: estrogen receptor binding class of the 30-compound training set
Description: Two Spectral Data-Activity Relationship (SDAR) models were established, based on ^13C NMR and EI MS spectra, for 30 estrogenic chemicals whose relative binding affinities (RBA) for the alpha (ERα) and beta (ERβ) estrogen receptors are available.
Strong binders to the estrogen receptor were classified as having a log (RBA) over 0.0, and medium binders to the estrogen receptor were classified as having a log (RBA) of less than or equal to 0.0.

estrogen receptor [2] = details: 107-compound training set; cited from earlier work
[3] = molecular target: T1, alpha (ERα) estrogen receptor (Homo sapiens, UniProt P03372); details: cited from earlier work
T1 sequence (P03372 1-595): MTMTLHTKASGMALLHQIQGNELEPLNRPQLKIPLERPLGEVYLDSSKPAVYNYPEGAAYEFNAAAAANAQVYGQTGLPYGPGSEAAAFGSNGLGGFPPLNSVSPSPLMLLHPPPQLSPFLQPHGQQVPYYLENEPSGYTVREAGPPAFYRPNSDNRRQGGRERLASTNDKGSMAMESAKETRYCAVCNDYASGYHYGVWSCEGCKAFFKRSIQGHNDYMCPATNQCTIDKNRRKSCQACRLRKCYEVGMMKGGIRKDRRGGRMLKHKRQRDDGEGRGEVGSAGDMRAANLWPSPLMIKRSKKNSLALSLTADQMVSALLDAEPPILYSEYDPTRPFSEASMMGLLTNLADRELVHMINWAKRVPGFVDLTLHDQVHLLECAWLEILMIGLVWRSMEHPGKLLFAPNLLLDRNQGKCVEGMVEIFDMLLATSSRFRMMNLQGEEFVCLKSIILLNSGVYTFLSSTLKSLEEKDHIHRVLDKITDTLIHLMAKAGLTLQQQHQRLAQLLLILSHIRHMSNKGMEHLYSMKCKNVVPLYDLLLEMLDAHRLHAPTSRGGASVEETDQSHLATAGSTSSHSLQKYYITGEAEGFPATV

[4] = molecular target: beta (ERβ) estrogen receptor (Rattus norvegicus, UniProt Q62986); details: cited from earlier work
Chain of beta (ERβ) estrogen receptor (Q62986 whole entry): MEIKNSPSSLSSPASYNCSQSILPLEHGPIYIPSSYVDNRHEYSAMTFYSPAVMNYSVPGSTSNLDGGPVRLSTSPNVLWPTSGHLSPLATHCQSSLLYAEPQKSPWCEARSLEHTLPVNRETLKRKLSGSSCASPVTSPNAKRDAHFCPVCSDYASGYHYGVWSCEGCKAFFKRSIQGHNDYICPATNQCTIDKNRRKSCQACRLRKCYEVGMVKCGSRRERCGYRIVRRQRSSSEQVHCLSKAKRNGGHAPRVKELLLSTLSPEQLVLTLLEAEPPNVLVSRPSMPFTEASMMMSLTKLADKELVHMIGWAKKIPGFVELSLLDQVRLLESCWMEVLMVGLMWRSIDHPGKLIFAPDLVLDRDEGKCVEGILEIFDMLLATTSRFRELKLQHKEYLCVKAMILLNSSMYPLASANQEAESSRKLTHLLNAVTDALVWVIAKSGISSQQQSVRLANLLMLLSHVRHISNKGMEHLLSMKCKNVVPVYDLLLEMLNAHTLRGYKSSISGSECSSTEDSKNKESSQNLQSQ

estrogen receptor [5] = assay: estrogen receptor relative binding affinity, expanded training set of 107 compounds; details: input class, 107-compound training set
Description: The training set included weak estrogen receptor binders in addition to strong and medium estrogen receptor binders.
For this model, strong estrogen receptor binders were defined as having log(RBA)>−0.25 and weak estrogen receptor binders were defined as having log(RBA)<−3.0. Medium estrogen receptor binders were defined as having log(RBA) in between.

[6] = SDAR training input endpoint class, 30 compounds
[7] = log of relative binding affinity, 17-β-estradiol RBA = 100

Row | Structure (SMILES) | RBA class in words (estrogen receptor [1]) | Class Input (estrogen receptor [1]; [6]) | log RBA (estrogen receptor [2]) | Log-(RBA) alpha [3] | Log-(RBA) beta [4] | Class (estrogen receptor [5]) | Class Input (estrogen receptor [1]) | Log-(RBA) alpha [3, 7] | Log-(RBA) beta [4, 7]
1 | C[C@]12CC[C@@H](O)C[C@@H]1CC[C@@H]1[C@@H]2CC[C@]2(C)[C@@H](O)CC[C@@H]12 [3α-Androstanediol, 5α-Androstane-3α,17β-diol] | medium | M (medium binders to the estrogen receptor were classified as having a log (RBA) of less than or equal to 0.0) | −2.67 | −1.15 | −0.52 | M (Medium estrogen receptor binders were defined as having log(RBA) in between) |  |  | 
2 | C[C@]12CC[C@H](O)C[C@@H]1CC[C@@H]1[C@@H]2CC[C@]2(C)[C@@H](O)CC[C@@H]12 [3β-Androstanediol, 5α-Androstane-3β,17β-diol] |  |  | −0.92 | 0.48 | 0.85 | M (Medium estrogen receptor binders were defined as having log(RBA) in between) | S (key: Strong binders to the estrogen receptor were classified as having a log (RBA) over 0.0; M: medium binders to the estrogen receptor were classified as having a log (RBA) of less than or equal to 0.0) |  | 
3 | CC(C)(c1ccc(O)cc1)c1ccc(O)cc1 [Bisphenol A, 4,4′-isopropylidenediphenol] |  | M (medium binders to the estrogen receptor were classified as having a log (RBA) of less than or equal to 0.0) | −2.11 |  |  | M (Medium estrogen receptor binders were defined as having log(RBA) in between) |  | −1.30 | −0.48
4 | C/C=C(/C(=C/C)c1ccc(O)cc1)c1ccc(O)cc1 [Dienestrol] |  | S (Strong binders to the estrogen receptor were classified as having a log (RBA) over 0.0) | 1.57 |  |  | S (strong estrogen receptor binders were defined as having log(RBA)>−0.25) |  | 2.35 | 2.61
5 | CC[C@H](c1ccc(O)cc1)[C@@H](CC)c1ccc(O)cc1 [Hexestrol] |  | S (Strong binders to the estrogen receptor were classified as having a log (RBA) over 0.0) | 2.48 |  |  | S (strong estrogen receptor binders were defined as having log(RBA)>−0.25) |  | 2.48 | 2.37
6 | COc1ccc(C(c2ccc(OC)cc2)C(Cl)(Cl)Cl)cc1 [Methoxychlor] |  | M (medium binders to the estrogen receptor were classified as having a log (RBA) of less than or equal to 0.0) | −3.2 | −2.00 | −0.89 |  |  |  | 
7 | C#C[C@]1(O)CC[C@H]2[C@@H]3CCc4cc(O)ccc4[C@H]3[C@@H](OC)C[C@@]21C [Moxestrol] |  | S (Strong binders to the estrogen receptor were classified as having a log (RBA) over 0.0) | 1.14 |  |  | S (strong estrogen receptor binders were defined as having log(RBA)>−0.25) |  | 1.63 | 0.70
8 | CC(=O)[C@H]1CC[C@H]2[C@@H]3CCC4=CC(=O)CC[C@]4(C)[C@H]3CC[C@]12C [Progesterone] |  | M (medium binders to the estrogen receptor were classified as having a log (RBA) of less than or equal to 0.0) |  |  |  | W (weak estrogen receptor binders were defined as having log(RBA)<−3.0) |  | −3.50 | −3.50
